Reference: paper PMC12624743 (ACS Infectious Diseases, 2025)
Converted amounts (≈) assume the structure as drawn.

Experiments:
[1] = target: T1, N. gonorrhoeae gyrase GyrA^S91F (Neisseria gonorrhoeae, UniProt P48371, S91F); test: DNA cleavage assay, GyrA^S91F gyrase; assay type: biochemical
T1 construct: His; made in house
Protocol: (§1) Some experiments replaced MgCl2 with an equivalent concentration of CaCl2 (10 mM), or 1.5 mM ATP was added to assay mixtures.
(§2) Reactions were incubated at 37 °C for 30 min with WT and mutant (GyrA^D90N, GyrA^A92T, GyrA^S91F, GyrA^D95G, or GyrA^S91F/D95G) N. gonorrhoeae gyrase, 10 min with WT N. gonorrhoeae topoisomerase IV, and 20 min with mutant (ParC^D86N, ParC^S88P, ParC^S87N, or ParC^E91G) N. gonorrhoeae topoisomerase IV. Enzyme-DNA cleavage complexes were trapped by adding 2 μL of 5% SDS followed by 2 μL of 250 mM EDTA (pH 8.0). Proteinase K was added (2 μL of a 0.8 mg/mL solution), and reaction mixtures were incubated at 45 °C for 30 min to digest the enzyme. Samples were mixed with 2 μL of loading buffer and heated at 45 °C for 2 min prior to electrophoresis in 1% agarose gels in 40 mM Tris-acetate (pH 8.3), and 2 mM EDTA containing 0.5 μg/mL ethidium bromide. DNA bands were visualized by midrange ultraviolet light and quantified using an Alpha Innotech digital imaging system (Protein Simple). Single-stranded DNA cleavage was monitored by the conversion of negatively supercoiled to nicked plasmid molecules.

[2] = target: T2, WT N. gonorrhoeae gyrase (Neisseria gonorrhoeae, UniProt P48371); test: DNA cleavage assay, WT gyrase; assay type: biochemical
T2 construct: His; made in house
T2 sequence (P48371 whole entry): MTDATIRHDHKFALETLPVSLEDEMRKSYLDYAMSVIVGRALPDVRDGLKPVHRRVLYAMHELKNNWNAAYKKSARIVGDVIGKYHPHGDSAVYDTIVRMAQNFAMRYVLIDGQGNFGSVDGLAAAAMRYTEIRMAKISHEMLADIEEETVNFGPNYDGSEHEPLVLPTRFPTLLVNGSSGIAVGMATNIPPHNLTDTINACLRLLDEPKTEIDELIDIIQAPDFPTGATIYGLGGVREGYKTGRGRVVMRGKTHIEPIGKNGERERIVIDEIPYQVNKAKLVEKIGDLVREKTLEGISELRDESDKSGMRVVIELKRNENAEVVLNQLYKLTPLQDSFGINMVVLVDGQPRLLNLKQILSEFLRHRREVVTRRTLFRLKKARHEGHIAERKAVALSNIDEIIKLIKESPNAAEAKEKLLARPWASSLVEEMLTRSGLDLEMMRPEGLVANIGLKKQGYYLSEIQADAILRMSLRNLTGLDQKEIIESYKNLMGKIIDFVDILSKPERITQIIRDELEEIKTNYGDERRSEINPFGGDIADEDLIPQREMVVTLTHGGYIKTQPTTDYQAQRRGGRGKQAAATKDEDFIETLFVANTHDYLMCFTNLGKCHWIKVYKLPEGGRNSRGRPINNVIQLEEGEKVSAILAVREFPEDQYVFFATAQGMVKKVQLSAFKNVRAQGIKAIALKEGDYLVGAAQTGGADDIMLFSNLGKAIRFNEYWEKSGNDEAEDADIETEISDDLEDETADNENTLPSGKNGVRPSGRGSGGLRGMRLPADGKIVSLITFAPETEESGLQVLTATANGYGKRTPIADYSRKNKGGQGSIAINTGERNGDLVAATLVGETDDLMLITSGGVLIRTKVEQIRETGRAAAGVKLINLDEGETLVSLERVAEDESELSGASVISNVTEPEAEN
T2 sequence (P22118 whole entry partner): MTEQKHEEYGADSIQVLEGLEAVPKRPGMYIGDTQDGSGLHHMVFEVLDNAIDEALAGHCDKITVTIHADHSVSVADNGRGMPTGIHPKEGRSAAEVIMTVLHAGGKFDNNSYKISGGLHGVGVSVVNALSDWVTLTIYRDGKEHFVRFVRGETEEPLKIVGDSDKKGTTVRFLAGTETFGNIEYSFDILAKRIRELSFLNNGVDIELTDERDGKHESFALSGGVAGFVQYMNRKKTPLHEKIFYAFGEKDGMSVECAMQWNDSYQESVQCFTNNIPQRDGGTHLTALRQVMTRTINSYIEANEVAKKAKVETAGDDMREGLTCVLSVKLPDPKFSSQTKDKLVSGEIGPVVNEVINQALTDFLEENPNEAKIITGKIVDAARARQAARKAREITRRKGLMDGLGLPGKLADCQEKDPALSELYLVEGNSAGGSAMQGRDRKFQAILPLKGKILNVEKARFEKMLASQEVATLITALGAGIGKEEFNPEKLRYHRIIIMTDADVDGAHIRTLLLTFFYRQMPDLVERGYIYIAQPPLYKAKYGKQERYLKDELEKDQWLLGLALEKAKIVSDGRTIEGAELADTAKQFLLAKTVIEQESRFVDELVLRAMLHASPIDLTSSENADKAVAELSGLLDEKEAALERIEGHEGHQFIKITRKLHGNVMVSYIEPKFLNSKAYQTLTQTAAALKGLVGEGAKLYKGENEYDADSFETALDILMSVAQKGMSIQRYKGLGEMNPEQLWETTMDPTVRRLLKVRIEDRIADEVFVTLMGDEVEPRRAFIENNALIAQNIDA
Protocol: as §1, §2

[3] = target: T3, N. gonorrhoeae gyrase GyrA^D90N (Neisseria gonorrhoeae, UniProt P48371, D90N); test: DNA cleavage assay, GyrA^D90N gyrase; assay type: biochemical
T3 construct: His; made in house
Protocol: as §1, §2

[4] = target: T4, N. gonorrhoeae topoisomerase IV ParC^D86N (Neisseria gonorrhoeae, UniProt P48374, D86N); test: Topoisomerase IV-catalyzed DNA decatenation assay, ParC^D86N; assay type: biochemical
T4 construct: His; made in house
T4 sequence (P48374 1-768 D86N): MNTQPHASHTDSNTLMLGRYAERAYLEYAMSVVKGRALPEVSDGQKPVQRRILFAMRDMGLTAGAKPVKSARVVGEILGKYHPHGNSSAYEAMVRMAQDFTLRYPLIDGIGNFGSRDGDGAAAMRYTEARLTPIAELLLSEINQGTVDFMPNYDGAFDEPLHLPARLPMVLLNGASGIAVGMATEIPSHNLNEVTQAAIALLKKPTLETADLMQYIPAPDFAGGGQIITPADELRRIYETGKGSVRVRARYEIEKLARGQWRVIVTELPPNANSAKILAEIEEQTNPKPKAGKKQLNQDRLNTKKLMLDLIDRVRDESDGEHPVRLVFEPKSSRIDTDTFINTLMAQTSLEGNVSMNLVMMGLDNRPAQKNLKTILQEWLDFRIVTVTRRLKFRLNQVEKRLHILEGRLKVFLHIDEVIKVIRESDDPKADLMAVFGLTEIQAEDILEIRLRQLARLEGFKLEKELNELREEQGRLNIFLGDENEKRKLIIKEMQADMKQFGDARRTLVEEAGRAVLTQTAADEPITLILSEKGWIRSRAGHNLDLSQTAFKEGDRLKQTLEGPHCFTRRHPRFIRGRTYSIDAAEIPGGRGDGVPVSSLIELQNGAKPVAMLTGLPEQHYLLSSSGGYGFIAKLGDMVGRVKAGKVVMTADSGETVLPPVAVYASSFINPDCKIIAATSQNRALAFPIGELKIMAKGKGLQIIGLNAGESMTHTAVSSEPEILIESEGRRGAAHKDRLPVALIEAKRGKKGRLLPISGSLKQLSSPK
Protocol: (§3) All proteins were His-tagged. N. gonorrhoeae WT gyrase (GyrA, GyrB) and topoisomerase IV (ParC, ParE) subunits as well as mutant GyrA^D90N, GyrA^A92T, GyrA^S91F, and GyrA^S91F/D95G gyrase and ParC^D86N and ParC^S88P topoisomerase IV were prepared as described previously. , N. gonorrhoeae mutant GyrA^D95G gyrase and mutant ParC^S87N and ParC^E91G topoisomerase IV were generated using a QuickChange II XL site-directed mutagenesis kit (Agilent Technologies) with custom primers for the desired mutations. Mutant N. gonorrhoeae GyrA and ParC subunits were expressed and purified as described by Ashley et al. with the following modifications to optimize protein expression and lysis: (1) GyrA^D95G was expressed for 2.5 h and ParC^S87N and ParC^E91G were expressed for 3 h before harvesting, and (2) cells were lysed by sonication using a digital sonifier (Branson). The identities of all constructs were confirmed by DNA sequencing, and all enzymes were stored at −80 °C. In all assays, N. gonorrhoeae gyrase or topoisomerase IV was used as a 1:1 GyrA:GyrB or ParC:ParE mixture, respectively, and the stated enzyme concentration reflects that of the holoenzyme (A2B2). […]

[5] = tested on: N. gonorrhoeae FA1090E-1 (GyrA^A92T/ParC^WT); test: MIC by agar dilution, GyrA^A92T strain; assay type: cell-based; conditions: Neisseria gonorrhoeae
Protocol: The purified isolate was confirmed to harbor GyrA^A92T as the single target mutation by DNA sequencing. This strain was designated FA1090E-1 (GyrA^A92T).
Minimum inhibitory concentration (MIC) of test compounds was determined by an agar dilution method, the reference testing method for N. gonorrhoeae according to the standards of the Clinical and Laboratory Standards Institute and the CDC.

[6] = tested on: N. gonorrhoeae topoisomerase IV ParC^E91G; test: Topoisomerase IV-catalyzed DNA decatenation assay, ParC^E91G; assay type: biochemical, Neisseria gonorrhoeae; conditions: ParC E91G vs WT
Protocol: as §3

[7] = target: T5, N. gonorrhoeae gyrase GyrA^D95G (Neisseria gonorrhoeae, UniProt P48371, D95G); test: DNA cleavage assay, GyrA^D95G gyrase; assay type: biochemical
T5 construct: His; made in house
Protocol: as §1, §2

[8] = target: T6, N. gonorrhoeae gyrase GyrA^A92T (Neisseria gonorrhoeae, UniProt P48371, A92T); test: DNA cleavage assay, GyrA^A92T gyrase; assay type: biochemical
T6 construct: His; made in house
T6 sequence (P48371 whole entry A92T): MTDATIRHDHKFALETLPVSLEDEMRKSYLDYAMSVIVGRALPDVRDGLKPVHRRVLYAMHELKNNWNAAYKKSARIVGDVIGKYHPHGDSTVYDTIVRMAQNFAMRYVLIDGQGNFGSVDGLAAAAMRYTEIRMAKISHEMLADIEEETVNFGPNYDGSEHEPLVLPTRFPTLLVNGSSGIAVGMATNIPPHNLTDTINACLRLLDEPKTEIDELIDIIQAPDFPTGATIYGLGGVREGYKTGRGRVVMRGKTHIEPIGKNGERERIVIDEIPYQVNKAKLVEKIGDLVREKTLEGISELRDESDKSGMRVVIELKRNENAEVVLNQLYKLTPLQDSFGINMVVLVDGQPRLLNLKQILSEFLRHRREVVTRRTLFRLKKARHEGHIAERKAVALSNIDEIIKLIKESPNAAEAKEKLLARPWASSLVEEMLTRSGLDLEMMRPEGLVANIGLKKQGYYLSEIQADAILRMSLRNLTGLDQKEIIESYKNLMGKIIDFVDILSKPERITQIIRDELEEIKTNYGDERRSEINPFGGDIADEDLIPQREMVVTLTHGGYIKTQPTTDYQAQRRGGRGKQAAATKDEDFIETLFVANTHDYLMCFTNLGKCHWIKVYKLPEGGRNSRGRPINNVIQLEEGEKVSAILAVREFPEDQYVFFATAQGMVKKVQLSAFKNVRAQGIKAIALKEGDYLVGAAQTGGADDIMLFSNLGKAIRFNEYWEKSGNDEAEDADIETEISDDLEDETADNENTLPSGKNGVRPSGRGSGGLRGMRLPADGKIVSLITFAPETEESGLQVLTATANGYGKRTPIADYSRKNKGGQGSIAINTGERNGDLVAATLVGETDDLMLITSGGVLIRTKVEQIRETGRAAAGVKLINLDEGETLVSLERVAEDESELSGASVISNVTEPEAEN
T6 sequence (P22118 whole entry partner): as the sequence (P22118 whole entry partner) above
Protocol: as §1, §2

O=c1ccc2ncc(=O)n3c2n1C[C@H]3CN1CCC(NCc2cc3c(cn2)OCCC3)CC1 [gepotidacin]
Adj-Max Cleavage, single-stranded DNA breaks [1]: 5.5%
EC50 ([1]; GyrA S91F gyrase, read-out: CC50, single-stranded DNA cleavage): 17200 nM
fold decrease of adjusted maximal DNA cleavage vs WT ([1]; GyrA S91F vs WT): ~3.1 fold
effect of ATP on potency and maximal DNA cleavage ([2]; 1.5 mM ATP): little effect
effect on double-stranded DNA scission ([2]; Mg2+ replaced with Ca2+): little effect
EC50 ([2]; Mg2+, no ATP, read-out: CC50, single-stranded DNA cleavage): 900 ± 300 nM
Adj-Max Cleavage, single-stranded DNA breaks ([2]; adjusted for baseline cleavage): ~17.1%
additional enhancement of double-stranded DNA breaks above baseline ([2]; up to 200 μM gepotidacin, up to 180 min): not observed
Adj-Max Cleavage, single-stranded DNA breaks [3]: 1.7%
increase in gepotidacin-induced DNA cleavage ([3]; GyrA D90N gyrase): essentially no increase
IC50 ([4]; ParC D86N topoisomerase IV, read-out: IC50, inhibition of DNA decatenation): > 200000 nM
inhibition of DNA decatenation ([4]; ParC D86N, gepotidacin concentrations as high as 200 μM): no inhibition
MIC [5]: 2 µg/mL (≈ 4.46 µM)
fold lower decatenation IC50 vs WT topoisomerase IV [6]: ~1.2 fold
Adj-Max Cleavage, single-stranded DNA breaks [7]: 17.9%
EC50 ([7]; GyrA D95G gyrase, read-out: CC50, single-stranded DNA cleavage): 1300 nM
single-stranded DNA cleavage compared with WT gyrase ([7]; GyrA D95G vs WT): nearly indistinguishable
Adj-Max Cleavage, single-stranded DNA breaks [8]: 4.9%
EC50 ([8]; GyrA A92T gyrase, read-out: CC50, single-stranded DNA cleavage): 500 nM
fold decrease of adjusted maximal DNA cleavage vs WT ([8]; GyrA A92T vs WT): ~3.5 fold
